Measured values: PubChem BioAssay (NCI)
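These data come from cells grown in 96-well plates and exposed to compound for 48 hours at five concentrations. TGI: total growth inhibition.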

system: MOLT-4 leukemia; experiment: growth of human tumour cells (NCI), 48 h

Q: For `CCOC(=O)CCCSCCCC(=O)CCCSCCCC(=O)OCC`, which TGI is on record?
A: Its TGI is greater than 100 µM.

Q: With `CC(C)=C[C@H]1C[C@H](C)[C@H]2CC[C@H](C)c3c2c1c(C)c1ncoc31` as the compound, how does the TGI read?
A: Its TGI is 32.3 µM.

Q: With `O=C1/C(=C\c2ccc(Cl)cc2Cl)Sc2scc(-c3ccc(O)c(O)c3)[n+]21` as the compound, how does the TGI read?
A: The TGI was 29.6 µM.

Q: `CCOC(=O)C(=[N+]=[N-])C(=O)CN1C(=O)c2ccccc2C1=O` was tested. Which TGI did it give?
A: Its TGI is greater than 100 µM.

system: M14 melanoma; experiment: growth of human tumour cells (NCI), 48 h

Q: `COC(=O)[C@]1(C)CCC[C@@]2(C)C1CC[C@@]13C=C(C(C)C)[C@@H](CC1=O)CC23` (stereo not given in full) was tested. Which TGI did it give?
A: The TGI was greater than 100 µM.

Q: Which TGI does the source give for `Cc1nn(C(=O)Cc2ccccc2)c2c1C(c1ccccc1)SC(N)=N2` (stereo not given) here?
A: The TGI was greater than 100 µM.

Q: `CCNC(=O)c1ccc(C)c(N=NN(C)C)c1` was tested. Which TGI did it give?
A: The TGI was greater than 100 µM.

Q: `C=CCNC(=S)N/C=C(\C#N)C(N)=O` was tested. Which TGI did it give?
A: Its TGI is greater than 100 µM.

Q: `CCOC(=O)c1cc(-c2ccc(OC)cc2)c([N+](=O)[O-])n1C` was tested. Which TGI did it give?
A: Its TGI is greater than 10 µM.

Q: For `COc1ccc(C2=CC(C(C)=C(C(N)=O)C(N)=O)C=C(c3ccc(Br)cc3)C2)c(OC)c1` (stereo not given), which TGI is on record?
A: The TGI was greater than 100 µM.

Q: Which TGI does the source give for `O=C1c2sc(-c3ccc(Cl)cc3)cc2-n2cccc21` here?
A: The TGI was greater than 100 µM.

Q: How did the TGI turn out when `CC(C)C(NC(=O)Oc1ccccc1)C(=O)NC1c2c(Br)sc(Br)c2C(=O)C1O` (stereo not given) was run?
A: The TGI was 11.4 µM.

Q: With `COCCOCOC(CCCCO)c1cc(C)c(O[Si](C)(C)C(C)(C)C)c(C)c1` (stereo not given) as the compound, how does the TGI read?
A: Its TGI is 23.1 µM.

Q: For `CSC(=O)c1sc(SC)[n+](-c2ccccc2)c1O`, which TGI is on record?
A: The TGI was 29.2 µM.

Q: `CC1=NN(c2nc(N)nc(COc3ccc(N)cc3)n2)C(C)(C)C1` was tested. Which TGI did it give?
A: Its TGI is greater than 100 µM.

Q: For `Cc1cc(OC(=O)Nc2cccc3ccccc23)c(C(C)C)cc1C(=S)Nc1ccccc1`, which TGI is on record?
A: Its TGI is 37 µM.

Q: `CC(=O)OCCOCNC(=S)N/N=C/c1ccc([N+](=O)[O-])o1` was tested. Which TGI did it give?
A: Its TGI is greater than 100 µM.

Q: For `COc1cc2c(/C=C3/C(=O)Nc4cccc(Cl)c43)c(Cl)[nH]c2cc1C`, which TGI is on record?
A: Its TGI is 7.78 µM.

Q: Which TGI does the source give for `Nc1ncc2c(n1)-c1ccccc1OC2N1CCCCC1` (stereo not given) here?
A: The TGI was greater than 100 µM.

Q: How did the TGI turn out when `COc1cc(C2C(Cl)C(=O)N2n2cnc3ccccc3c2=O)ccc1O` (stereo not given) was run?
A: The TGI was greater than 100 µM.

Q: Which TGI does the source give for `C[C@]12c3c4cc(NC(=O)C(=O)NCc5ccc(-c6ccccn6)nc5)cc3Oc3cc(NC(=O)C(=O)NCc5ccc(-c6ccccn6)nc5)cc(c31)OC1C=C(NC(=O)C(=O)NCc3ccc(-c5ccccn5)nc3)C=C(O4)C12` (stereo not given in full) here?
A: The TGI was greater than 100 µM.

Q: `COc1ccc(C2Oc3cc(OC)c(OC)cc3C2CCl)cc1OC` (stereo not given) was tested. Which TGI did it give?
A: Its TGI is greater than 100 µM.

Q: Which TGI does the source give for `COC(=O)c1cccc(C)c1C1CN=NC12Cc1cc(C)cc(C)c1C2=O` (stereo not given) here?
A: Its TGI is 93.6 µM.

Q: For `COc1cc(OCCN(C)C)c2[nH]c(C(=O)N3CC(CCl)c4ccc(N)cc43)cc2c1` (stereo not given), which TGI is on record?
A: The TGI was 1.13 µM.

Q: With `O=C1c2ccccc2-n2nnnc2C2CSCN12` (stereo not given) as the compound, how does the TGI read?
A: Its TGI is greater than 100 µM.

Q: `O=c1[nH]c(=O)c2c3n(cc2[nH]1)CCCCC3` was tested. Which TGI did it give?
A: The TGI was greater than 100 µM.

Q: Which TGI does the source give for `COc1ccc(NC(=S)c2ccc(CN3CCCCC3)s2)cc1` here?
A: The TGI was 35.4 µM.

Q: How did the TGI turn out when `N#Cc1cccc(-n2[nH]c(=O)ccc2=O)c1` was run?
A: Its TGI is greater than 100 µM.

Q: Which TGI does the source give for `Cc1ccc(S[C@@H](C)[C@@](O)(CF)CN(Cc2ccccc2)C(=O)C(F)(F)F)cc1` here?
A: The TGI was 31.7 µM.

Q: Which TGI does the source give for `CCN(CC)CCCNC(=O)c1cc(-c2nccn2C)nc2ccccc12` here?
A: The TGI was greater than 100 µM.

Q: How did the TGI turn out when `O=C1/C(=C/c2ccco2)NC(=S)N1CN1CCCCC1` was run?
A: The TGI was greater than 100 µM.

Q: For `CCOC(=O)CCCSCCCC(=O)CCCSCCCC(=O)OCC`, which TGI is on record?
A: Its TGI is greater than 100 µM.

Q: For `CC(C)=C[C@H]1C[C@H](C)[C@H]2CC[C@H](C)c3c2c1c(C)c1ncoc31`, which TGI is on record?
A: Its TGI is 29.3 µM.

Q: Which TGI does the source give for `O=C1/C(=C\c2ccc(Cl)cc2Cl)Sc2scc(-c3ccc(O)c(O)c3)[n+]21` here?
A: The TGI was 40.6 µM.

Q: Which TGI does the source give for `CCOC(=O)C(=[N+]=[N-])C(=O)CN1C(=O)c2ccccc2C1=O` here?
A: The TGI was greater than 100 µM.

system: COLO 205 colon; experiment: growth of human tumour cells (NCI), 48 h

Q: How did the TGI turn out when `CCCCCCc1cc2cc(-c3cn4ccsc4n3)c(=O)oc2cc1O` was run?
A: The TGI was greater than 100 µM.

Q: With `Cc1nn(C(=O)Cc2ccccc2)c2c1C(c1ccccc1)SC(N)=N2` (stereo not given) as the compound, how does the TGI read?
A: Its TGI is greater than 100 µM.

Q: Which TGI does the source give for `C=CCNC(=S)N/C=C(\C#N)C(N)=O` here?
A: Its TGI is greater than 100 µM.

Q: With `COc1ccc(C2=CC(C(C)=C(C(N)=O)C(N)=O)C=C(c3ccc(Br)cc3)C2)c(OC)c1` (stereo not given) as the compound, how does the TGI read?
A: Its TGI is greater than 100 µM.

Q: For `O=C1c2sc(-c3ccc(Cl)cc3)cc2-n2cccc21`, which TGI is on record?
A: Its TGI is greater than 100 µM.

Q: For `CC(C)C(NC(=O)Oc1ccccc1)C(=O)NC1c2c(Br)sc(Br)c2C(=O)C1O` (stereo not given), which TGI is on record?
A: Its TGI is 14.4 µM.

Q: `COCCOCOC(CCCCO)c1cc(C)c(O[Si](C)(C)C(C)(C)C)c(C)c1` (stereo not given) was tested. Which TGI did it give?
A: The TGI was 22.3 µM.

Q: For `CSC(=O)c1sc(SC)[n+](-c2ccccc2)c1O`, which TGI is on record?
A: The TGI was greater than 100 µM.

Q: `CC1=NN(c2nc(N)nc(COc3ccc(N)cc3)n2)C(C)(C)C1` was tested. Which TGI did it give?
A: The TGI was greater than 100 µM.

Q: For `Cc1cc(OC(=O)Nc2cccc3ccccc23)c(C(C)C)cc1C(=S)Nc1ccccc1`, which TGI is on record?
A: Its TGI is 39.4 µM.

Q: `CC(=O)OCCOCNC(=S)N/N=C/c1ccc([N+](=O)[O-])o1` was tested. Which TGI did it give?
A: Its TGI is 42.9 µM.

Q: For `COc1cc2c(/C=C3/C(=O)Nc4cccc(Cl)c43)c(Cl)[nH]c2cc1C`, which TGI is on record?
A: The TGI was 4.1 µM.

Q: `Nc1ncc2c(n1)-c1ccccc1OC2N1CCCCC1` (stereo not given) was tested. Which TGI did it give?
A: The TGI was greater than 100 µM.

Q: With `COc1cc(C2C(Cl)C(=O)N2n2cnc3ccccc3c2=O)ccc1O` (stereo not given) as the compound, how does the TGI read?
A: Its TGI is greater than 100 µM.

Q: For `C[C@]12c3c4cc(NC(=O)C(=O)NCc5ccc(-c6ccccn6)nc5)cc3Oc3cc(NC(=O)C(=O)NCc5ccc(-c6ccccn6)nc5)cc(c31)OC1C=C(NC(=O)C(=O)NCc3ccc(-c5ccccn5)nc3)C=C(O4)C12` (stereo not given in full), which TGI is on record?
A: The TGI was greater than 100 µM.

Q: Which TGI does the source give for `COc1ccc(C2Oc3cc(OC)c(OC)cc3C2CCl)cc1OC` (stereo not given) here?
A: The TGI was greater than 100 µM.

Q: For `COc1cc(OCCN(C)C)c2[nH]c(C(=O)N3CC(CCl)c4ccc(N)cc43)cc2c1` (stereo not given), which TGI is on record?
A: Its TGI is 0.17 µM.

Q: `O=C1c2ccccc2-n2nnnc2C2CSCN12` (stereo not given) was tested. Which TGI did it give?
A: Its TGI is greater than 100 µM.

Q: `O=c1[nH]c(=O)c2c3n(cc2[nH]1)CCCCC3` was tested. Which TGI did it give?
A: Its TGI is greater than 100 µM.

Q: How did the TGI turn out when `COc1ccc(NC(=S)c2ccc(CN3CCCCC3)s2)cc1` was run?
A: The TGI was 30.8 µM.
